In the supplement of paper PMC13207355:
Structures can show the parent of a compound that is named as a salt.

How the values were obtained:
Settings in all cases: exposure time: 72 h
[1] = tested on: E31 (patient-derived glioblastoma stem cells of proneural subtype); assay: surviving fraction (nuclei count normalised to DMSO); higher = more cells surviving (less toxic)
[2] = tested on: E57 (patient-derived glioblastoma stem cells of mesenchymal subtype); assay: as above
[3] = tested on: E34 (patient-derived glioblastoma stem cells of proneural subtype); assay: as above
[4] = tested on: E21 (patient-derived glioblastoma stem cells of mesenchymal subtype); assay: as above
[5] = tested on: E28 (patient-derived glioblastoma stem cells of classical subtype); assay: as above
[6] = tested on: E13 (patient-derived glioblastoma stem cells of classical subtype); assay: as above
[7] = tested on: FT3469 (normal neural stem cell line); assay: as above
[8] = tested on: E31; assay: phenotypic distance (Euclidean, principal components) from DMSO controls (arbitrary units); higher = stronger morphological change
[9] = tested on: E57; assay: as above
[10] = tested on: E34; assay: as above
[11] = tested on: E21; assay: as above
[12] = tested on: E28; assay: as above
[13] = tested on: E13; assay: as above
[14] = tested on: FT3469; assay: as above
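Wherever phenotypic distance (Euclidean, principal components) from DMSO controls is given: cell Painting imaging in 384-well plates, CellProfiler features reduced to at least 20 principal components, Euclidean distance versus same-plate DMSO vehicle wells (0.1% v/v), median over six images per well.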
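Wherever surviving fraction (nuclei count normalised to DMSO) is given: nuclei counted by high-content imaging of Hoechst-stained cells in laminin-coated 384-well plates, relative to 0.1% DMSO vehicle wells, with staurosporine as cell-death control.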

OCCN1CCN(CCCN2c3ccccc3Sc3ccc(C(F)(F)F)cc32)CC1 [Fluphenazine dihydrochloride]
Settings | phenotypic distance | surviving fraction
[1], 4.1 nM | – | 1.01
[1], 12.3 nM | – | 1.18
[1], 37 nM | – | 1.02
[1], 111.1 nM | – | 0.932
[1], 333.3 nM | – | 1.09
[1], 1000 nM | – | 1.22
[1], 3000 nM | – | 1.13
[2], 4.1 nM | – | 1.02
[2], 12.3 nM | – | 1.03
[2], 37 nM | – | 1.03
[2], 111.1 nM | – | 1
[2], 333.3 nM | – | 1.12
[2], 1000 nM | – | 1.02
[2], 3000 nM | – | 1.15
[3], 4.1 nM | – | 0.901
[3], 12.3 nM | – | 0.986
[3], 37 nM | – | 0.911
[3], 111.1 nM | – | 0.993
[3], 333.3 nM | – | 1.2
[3], 1000 nM | – | 1.05
[3], 3000 nM | – | 1.06
[4], 4.1 nM | – | 0.932
[4], 12.3 nM | – | 0.986
[4], 37 nM | – | 1.08
[4], 111.1 nM | – | 0.96
[4], 333.3 nM | – | 1.01
[4], 1000 nM | – | 0.989
[4], 3000 nM | – | 0.938
[5], 4.1 nM | – | 1.13
[5], 12.3 nM | – | 0.846
[5], 37 nM | – | 1.1
[5], 111.1 nM | – | 1.04
[5], 333.3 nM | – | 0.899
[5], 1000 nM | – | 0.923
[5], 3000 nM | – | 1.05
[6], 4.1 nM | – | 0.959
[6], 12.3 nM | – | 1.02
[6], 37 nM | – | 1
[6], 111.1 nM | – | 1
[6], 333.3 nM | – | 0.966
[6], 1000 nM | – | 0.816
[6], 3000 nM | – | 0.804
[7], 4.1 nM | – | 0.838
[7], 12.3 nM | – | 1.09
[7], 37 nM | – | 0.931
[7], 111.1 nM | – | 1
[7], 333.3 nM | – | 1.04
[7], 1000 nM | – | 0.894
[7], 3000 nM | – | 0.84
[8], 4.1 nM | 0.66 | –
[8], 12.3 nM | 0.671 | –
[8], 37 nM | 0.803 | –
[8], 111.1 nM | 1.17 | –
[8], 333.3 nM | 1.95 | –
[8], 1000 nM | 2.4 | –
[8], 3000 nM | 2.16 | –
[9], 4.1 nM | 0.619 | –
[9], 12.3 nM | 0.504 | –
[9], 37 nM | 0.711 | –
[9], 111.1 nM | 0.787 | –
[9], 333.3 nM | 0.901 | –
[9], 1000 nM | 0.778 | –
[9], 3000 nM | 1.6 | –
[10], 4.1 nM | 0.947 | –
[10], 12.3 nM | 0.375 | –
[10], 37 nM | 0.734 | –
[10], 111.1 nM | 0.93 | –
[10], 333.3 nM | 1.15 | –
[10], 1000 nM | 0.764 | –
[10], 3000 nM | 1.17 | –
[11], 4.1 nM | 0.339 | –
[11], 12.3 nM | 0.421 | –
[11], 37 nM | 0.601 | –
[11], 111.1 nM | 0.795 | –
[11], 333.3 nM | 0.745 | –
[11], 1000 nM | 0.728 | –
[11], 3000 nM | 1.26 | –
[12], 4.1 nM | 0.832 | –
[12], 12.3 nM | 0.622 | –
[12], 37 nM | 0.706 | –
[12], 111.1 nM | 0.624 | –
[12], 333.3 nM | 0.662 | –
[12], 1000 nM | 0.755 | –
[12], 3000 nM | 0.877 | –
[13], 4.1 nM | 0.431 | –
[13], 12.3 nM | 0.337 | –
[13], 37 nM | 0.907 | –
[13], 111.1 nM | 0.69 | –
[13], 333.3 nM | 1.57 | –
[13], 1000 nM | 1.8 | –
[13], 3000 nM | 2.01 | –
[14], 4.1 nM | 0.785 | –
[14], 12.3 nM | 0.668 | –
[14], 37 nM | 0.632 | –
[14], 111.1 nM | 0.808 | –
[14], 333.3 nM | 0.87 | –
[14], 1000 nM | 1.41 | –
[14], 3000 nM | 1.36 | –

O=C(Nc1ccc([N+](=O)[O-])cc1Cl)c1cc(Cl)ccc1O [Niclosamide]
Settings | phenotypic distance | surviving fraction
[1], 4.1 nM | – | 0.927
[1], 12.3 nM | – | 0.495
[1], 37 nM | – | 0.132
[1], 111.1 nM | – | 0.072
[1], 333.3 nM | – | 0.0854
[1], 1000 nM | – | 0.0502
[1], 3000 nM | – | 0.0703
[2], 4.1 nM | – | 0.572
[2], 12.3 nM | – | 0.303
[2], 37 nM | – | 0.2
[2], 111.1 nM | – | 0.176
[2], 333.3 nM | – | 0.166
[2], 1000 nM | – | 0.136
[2], 3000 nM | – | 0.149
[3], 4.1 nM | – | 0.708
[3], 12.3 nM | – | 0.542
[3], 37 nM | – | 0.562
[3], 111.1 nM | – | 0.417
[3], 333.3 nM | – | 0.406
[3], 1000 nM | – | 0.452
[3], 3000 nM | – | 0.331
[4], 4.1 nM | – | 0.602
[4], 12.3 nM | – | 0.363
[4], 37 nM | – | 0.0551
[4], 111.1 nM | – | 0.0103
[4], 333.3 nM | – | 0.0028
[4], 1000 nM | – | 0.00933
[4], 3000 nM | – | 0.00467
[5], 4.1 nM | – | 0.616
[5], 12.3 nM | – | 0.446
[5], 37 nM | – | 0.147
[5], 111.1 nM | – | 0.0916
[5], 333.3 nM | – | 0.0952
[5], 1000 nM | – | 0.0557
[5], 3000 nM | – | 0.0898
[6], 4.1 nM | – | 0.397
[6], 12.3 nM | – | 0.192
[6], 37 nM | – | 0.156
[6], 111.1 nM | – | 0.163
[6], 333.3 nM | – | 0.148
[6], 1000 nM | – | 0.132
[6], 3000 nM | – | 0.117
[7], 4.1 nM | – | 0.772
[7], 12.3 nM | – | 0.654
[7], 37 nM | – | 0.297
[7], 111.1 nM | – | 0.244
[7], 333.3 nM | – | 0.227
[7], 1000 nM | – | 0.262
[7], 3000 nM | – | 0.28
[8], 4.1 nM | 3.09 | –
[8], 12.3 nM | 4.78 | –
[8], 37 nM | 5.57 | –
[8], 111.1 nM | 10.1 | –
[8], 333.3 nM | 8.82 | –
[8], 1000 nM | 9.48 | –
[8], 3000 nM | 7.83 | –
[9], 4.1 nM | 4.23 | –
[9], 12.3 nM | 7.26 | –
[9], 37 nM | 6.17 | –
[9], 111.1 nM | 4.83 | –
[9], 333.3 nM | 6.2 | –
[9], 1000 nM | 6.94 | –
[9], 3000 nM | 6.28 | –
[10], 4.1 nM | 1.82 | –
[10], 12.3 nM | 2.56 | –
[10], 37 nM | 5.44 | –
[10], 111.1 nM | 8.06 | –
[10], 333.3 nM | 7.5 | –
[10], 1000 nM | 7.96 | –
[10], 3000 nM | 7.89 | –
[11], 4.1 nM | 4.72 | –
[11], 12.3 nM | 6.44 | –
[11], 37 nM | 6.49 | –
[11], 111.1 nM | 11.8 | –
[11], 333.3 nM | 11.9 | –
[11], 1000 nM | 12.4 | –
[11], 3000 nM | 14 | –
[12], 4.1 nM | 1.99 | –
[12], 12.3 nM | 2.43 | –
[12], 37 nM | 6.04 | –
[12], 111.1 nM | 8.95 | –
[12], 333.3 nM | 7.22 | –
[12], 1000 nM | 8.51 | –
[12], 3000 nM | 7.9 | –
[13], 4.1 nM | 4.25 | –
[13], 12.3 nM | 4.77 | –
[13], 37 nM | 6.86 | –
[13], 111.1 nM | 9.47 | –
[13], 333.3 nM | 8.21 | –
[13], 1000 nM | 8.6 | –
[13], 3000 nM | 8.06 | –
[14], 4.1 nM | 2.28 | –
[14], 12.3 nM | 3.48 | –
[14], 37 nM | 7.75 | –
[14], 111.1 nM | 7.91 | –
[14], 333.3 nM | 9.29 | –
[14], 1000 nM | 9.03 | –
[14], 3000 nM | 10.3 | –
